From ChEMBL document CHEMBL1126308, “Alfred Burger Award address. A half century in medicinal chemistry with major emphasis on pain-relieving drugs and their antagonists” (1992)
Activity calls are given as the source filed them. The calls are words filed in the database; no cut-off is given here.

Assays:
Monkey [1] = experiment: Analgesic activity in monkeys.; assay type: functional, Cercopithecidae
Mus musculus [2] = species on record: Mus musculus; experiment: Compound was evaluated for the inhibition of [3H]naloxone binding to mouse brain homogenate at 1 nM in the presence of 100 mM sodium; ED50 = […] nM; assay type: functional
Mus musculus [3] = species on record: Mus musculus; experiment: Compound was evaluated for the hotplate analgesic activity in mouse; assay type: functional; parameters: unit not given here
Mus musculus [4] = species on record: Mus musculus; experiment: (§1) Compound was evaluated for the inhibition of [3H]naloxone binding to mouse brain homogenate at 1 nM in the absence of sodium; assay type: functional
Mus musculus [5] = species on record: Mus musculus; experiment: Ratio between the ED50 values in presence and absence of sodium; value ranges from […]; assay type: functional
Monkey [6] = experiment: Physical dependence capacity (PDC) of the compound; no physical dependence capacity; assay type: functional, organism-based; conditions: Cercopithecidae
Mus musculus [7] = species on record: Mus musculus; experiment: Compound was evaluated for the hotplate analgesic activity; assay type: functional
Mus musculus [8] = species on record: Mus musculus; experiment: Ratio between the ED50 values in presence and absence of sodium; value ranges from 2-2.5; assay type: functional
[9] = target: Mu-type opioid receptor (Mus musculus) (UniProt P42866); experiment: Compound was evaluated for the inhibition of [3H]naloxone binding to opioid receptor mu mouse brain homogenate at 1 nM in the presence of 100 mM sodium; ED50 = 40-50 nM; assay type: tissue-based
Chain of Mu-type opioid receptor (Mus musculus) (P42866 whole entry): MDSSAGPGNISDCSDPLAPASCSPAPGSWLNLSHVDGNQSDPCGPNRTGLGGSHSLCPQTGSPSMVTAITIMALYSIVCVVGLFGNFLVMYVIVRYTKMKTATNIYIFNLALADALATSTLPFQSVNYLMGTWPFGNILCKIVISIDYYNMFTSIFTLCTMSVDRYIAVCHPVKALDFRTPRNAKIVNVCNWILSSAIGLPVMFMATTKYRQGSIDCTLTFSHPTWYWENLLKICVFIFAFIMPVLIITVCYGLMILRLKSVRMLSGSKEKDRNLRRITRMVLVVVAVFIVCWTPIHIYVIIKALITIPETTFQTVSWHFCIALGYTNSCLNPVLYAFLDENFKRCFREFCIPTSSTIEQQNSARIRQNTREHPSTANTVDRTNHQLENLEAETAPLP

[10] = target: Mu-type opioid receptor (Mus musculus) (UniProt P42866); experiment: Compound was evaluated for the inhibition of [3H]naloxone binding to opioid receptor mu of mouse brain homogenate at 1 nM in the absence of sodium; assay type: tissue-based
Mus musculus [11] = species on record: Mus musculus; experiment: Ratio between the ED50 values in presence and absence of sodium; value ranges from 1.2-1.5; assay type: functional
[12] = target: Mu-type opioid receptor (Mus musculus) (UniProt P42866); experiment: Compound was evaluated for the inhibition of [3H]naloxone binding to opioid receptor mu of mouse brain homogenate at 1 nM in the presence of 100 mM sodium; ED50=600-700 nM; assay type: tissue-based
Mus musculus [13] = species on record: Mus musculus; experiment: Compound was evaluated for the hotplate analgesic activity; IA=inactive; assay type: functional, organism-based
[14] = target: Mu-type opioid receptor (Mus musculus) (UniProt P42866); experiment: as §1; assay type: tissue-based
Monkey [15] = experiment: Antagonistic potency of the compound; not active; assay type: functional, organism-based; conditions: Cercopithecidae
Monkey [16] = experiment: Physical dependence capacity (PDC) of the compound; high physical dependence capacity; assay type: functional, organism-based; conditions: Cercopithecidae
Mus musculus [17] = species on record: Mus musculus; experiment: Ratio between the ED50 values in presence and absence of sodium; assay type: functional
Mus musculus [18] = species on record: Mus musculus; experiment: (§2) Compound was evaluated for the inhibition of [3H]naloxone binding to mouse brain homogenate at 1 nM in the presence of 100 mM sodium; assay type: functional
Monkey [19] = experiment: Physical dependence capacity (PDC) of the compound; intermed physical dependence capacity; assay type: functional, organism-based; conditions: Cercopithecidae
Mus musculus [20] = species on record: Mus musculus; experiment: Compound was evaluated for the inhibition of [3H]naloxone binding to mouse brain homogenate at 1 nM in the presence of 100 mM sodium; ED50 = 1500-2000 nM; assay type: functional
[21] = target: Mu-type opioid receptor (Rattus norvegicus) (UniProt P33535); experiment: Ratio between the ED50 values in presence and absence of sodium; value ranges from 3.8-5; assay type: functional; conditions: Mus musculus
Chain of Mu-type opioid receptor (Rattus norvegicus) (P33535 whole entry): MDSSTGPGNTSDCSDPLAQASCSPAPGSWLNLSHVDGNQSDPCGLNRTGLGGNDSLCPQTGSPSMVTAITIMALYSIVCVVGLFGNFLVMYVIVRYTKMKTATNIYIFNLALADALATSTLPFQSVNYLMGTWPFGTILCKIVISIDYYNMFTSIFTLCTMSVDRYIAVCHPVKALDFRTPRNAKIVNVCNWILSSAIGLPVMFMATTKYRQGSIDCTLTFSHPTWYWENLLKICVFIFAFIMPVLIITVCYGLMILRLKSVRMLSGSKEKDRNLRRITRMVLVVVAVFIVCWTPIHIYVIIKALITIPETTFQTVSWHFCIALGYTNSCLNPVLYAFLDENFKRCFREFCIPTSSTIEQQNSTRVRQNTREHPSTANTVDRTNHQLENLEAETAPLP

Monkey [22] = experiment: Physical dependence capacity (PDC) of the compound; low physical dependence capacity; assay type: functional, organism-based; conditions: Cercopithecidae
Mus musculus [23] = species on record: Mus musculus; experiment: Ratio between the ED50 values in presence and absence of sodium; value ranges from 4-5; assay type: functional
Mus musculus [24] = species on record: Mus musculus; experiment: Compound was evaluated for the inhibition of [3H]naloxone binding to mouse brain homogenate at 1 nM in the presence of 100 mM sodium; ED50 = 800-1000 nM; assay type: functional
[25] = target: Mu-type opioid receptor (Mus musculus) (UniProt P42866); experiment: Compound was evaluated for the inhibition of [3H]-naloxone binding to mouse brain homogenate at 1 nM in the presence of 100 mM sodium; assay type: tissue-based
[26] = target: Mu-type opioid receptor (Mus musculus) (UniProt P42866); experiment: as §2; assay type: tissue-based
[27] = target: Mu-type opioid receptor (Mus musculus) (UniProt P42866); experiment: Compound was evaluated for the inhibition of [3H]naloxone binding to mouse brain homogenate at 1 nM in the absence of sodium; ED50 = 7-10 nM; assay type: tissue-based
[28] = target: Mu-type opioid receptor (Mus musculus) (UniProt P42866); experiment: Ratio between the ED50 values in presence and absence of sodium; value ranges from 7-10
Monkey [29] = experiment: Physical dependence capacity (PDC) of the compound; very low physical dependence capacity; assay type: functional, organism-based; conditions: Cercopithecidae
Monkey [30] = experiment: aAntagonistic potency of the compound; not active; assay type: functional, organism-based; conditions: Cercopithecidae
[31] = Cercopithecidae, in Primates, read-out: ED50

Work on `CC1C2Cc3ccc(O)cc3[C@@H]1CCN2C` (stereo in doubt; form 1) yielded an ED50 (Monkey [1]) of 1.1 mg/kg.
`CCCCN1CCC(C(=O)CC)(c2cccc(O)c2)CC1` gave an ED50 (Mus musculus [2]) of 600 nM, an ED50 (Mus musculus [3]) of 4.6 and an ED50 (Mus musculus [4]) of 50 nM. The Ratio (Mus musculus [5]) was 12.
`CN1CC[C@]2(C)CC1Cc1ccc(O)cc12` (stereo in doubt; form 3) [listing 1 of 2 here] was tested, and the PDC (Monkey [6]) was “no physical dependence capacity”.
With `CCCCCCCN1CCC(C(=O)CC)(c2cccc(O)c2)CC1` the ED50 (Mus musculus [7]) was 9000 nM, the Ratio (Mus musculus [8]) was 2 and the ED50 [9] was 40 nM. It also gave an ED50 [10] of 20 nM.
Work on `CC1C2Cc3ccc(O)cc3[C@@H]1CCN2C` (stereo in doubt; form 2) yielded an ED50 (Monkey [1]) of 4.3 mg/kg.
`CCCCCCCCCCN1CCC(C(=O)CC)(c2cccc(O)c2)CC1` was tested, and the Ratio (Mus musculus [11]) was 1.2, the ED50 [12] was 600 nM and the ED50 (Mus musculus [13]) was “inactive”. The ED50 [14] was 500 nM.
In the case of `CCC[C@]12CCN(C)C(Cc3ccc(O)cc31)[C@@H]2C`, the Antagonist potency (Monkey [15]) is reported as “inactive”, the PDC (Monkey [16]) is reported as “high physical dependence capacity” and the PDC (Monkey [6]) is reported as “high physical dependence capacity”.
For `CCCCCCN1CCC(C(=O)CC)(c2cccc(O)c2)CC1`, the Ratio (Mus musculus [17]) was 2, the ED50 (Mus musculus [3]) was 7.5 and the ED50 (Mus musculus [4]) was 20 nM. For the same compound, the ED50 (Mus musculus [18]) was 40 nM.
With `COc1ccc2c3c1O[C@H]1[C@@H](O)C=C[C@H]4[C@@H](C2)N(C)CC[C@@]341` [CODEINE] the ED50 (Monkey [1]; [31]) was 7.5 mg/kg, the PDC (Monkey [19]) was “Partially active” and the Antagonist potency (Monkey [15]) was “inactive”.
`CCC(=O)C1(c2cccc(O)c2)CCN(CC)CC1` showed an ED50 (Mus musculus [20]) of 1500 nM, a Ratio [21] of 3.8 and an ED50 (Mus musculus [3]) of 67.2. The ED50 (Mus musculus [4]) was 400 nM.
`CC[C@]12CCN(C)C(Cc3ccc(O)cc31)C2` was tested, and the PDC (Monkey [22]) was “low physical dependence capacity”, the Antagonist potency (Monkey [15]) was “inactive” and the PDC (Monkey [6]) was “low physical dependence capacity”.
`C[C@H]1C2Cc3ccc(O)cc3[C@]1(C)CCN2C` was tested, and the ED50 (Monkey [1]; Cercopithecidae) was “inactive”, the ED50 (Monkey [1]; [31]) was 0.6 mg/kg and the Antagonist potency (Monkey [15]) was “inactive”. The PDC (Monkey [6]) was “no physical dependence capacity”.
For `CN1CC[C@]2(C)CC1Cc1ccc(O)cc12` (stereo in doubt; form 2), the ED50 (Monkey [1]) was 3.2 mg/kg.
With `CCCN1CCC(C(=O)CC)(c2cccc(O)c2)CC1` the Ratio (Mus musculus [23]) was 4, the ED50 (Mus musculus [24]) was 800 nM and the ED50 (Mus musculus [3]) was 16. It also gave an ED50 (Mus musculus [4]) of 200 nM.
In the case of `CN1CC[C@@H]2CC1Cc1ccc(O)cc12`, the ED50 (Monkey [1]; [31]) is reported as 4.5 mg/kg.
`CCCCCCCCCN1CCC(C(=O)CC)(c2cccc(O)c2)CC1` was tested, and the ED50 (Mus musculus [13]) was “inactive”, the ED50 [14] was 700 nM and the Ratio (Mus musculus [17]) was 1. The ED50 [25] was 700 nM.
`CCC(=O)C1(c2cccc(O)c2)CCN(C)CC1` [KETOBEMIDONE] showed an ED50 [26] of 70 nM, an ED50 (Mus musculus [3]) of 2.1 and an ED50 [27] of 7 nM. It also gave a Ratio [28] of 7.
Compound `CCCCCN1CCC(C(=O)CC)(c2cccc(O)c2)CC1` has a Ratio (Mus musculus [17]) of 3.8, an ED50 (Mus musculus [3]) of 0.78 and an ED50 (Mus musculus [4]) of 8 nM. It also gave an ED50 (Mus musculus [18]) of 30 nM.
Compound `CC1C2Cc3ccc(O)cc3[C@]1(C)CCN2C` (stereo in doubt; form 1) has an ED50 (Monkey [1]) of 0.1 mg/kg.
`CC[C@H]1C2Cc3ccc(O)cc3[C@]1(CC)CCN2C` was tested, and the PDC (Monkey [19]) was “intermed physical dependence capacity”, the Antagonist potency (Monkey [15]) was “inactive” and the PDC (Monkey [6]) was “intermed physical dependence capacity”.
Compound `CN1CC[C@]2(C)CC1Cc1ccc(O)cc12` (stereo in doubt; form 3) [listing 2 of 2 here] has an ED50 (Monkey [1]) of 1.8 mg/kg.
For `CN1CC[C@]2(C)CC1Cc1ccc(O)cc12` (stereo in doubt; form 1) [listing 1 of 2 here], the PDC (Monkey [29]) was “no physical dependence capacity” and the Antagonist potency (Monkey [15]) was “inactive”.
`CC1C2Cc3ccc(O)cc3[C@]1(C)CCN2C` (stereo in doubt; form 2) gave an ED50 (Monkey [1]) of 1.2 mg/kg.
In the case of `CN1CC[C@]2(C)CC1Cc1ccc(O)cc12` (stereo in doubt; form 1) [listing 2 of 2 here], the ED50 (Monkey [1]) is reported as 22.9 mg/kg.
`CN1CC[C@]23c4c5ccc(O)c4O[C@H]2[C@@H](O)C=C[C@H]3[C@H]1C5` [MORPHINE] was tested, and the ED50 (Monkey [1]; [31]) was 1.2 mg/kg, the Antagonist potency (Monkey [30]) was “inactive” and the PDC (Monkey [16]) was “Active”.
`CCCCCCCCN1CCC(C(=O)CC)(c2cccc(O)c2)CC1` gave an ED50 [14] of 200 nM, a Ratio (Mus musculus [17]) of 1 and an ED50 (Mus musculus [7]) of 26500 nM. For the same compound, the ED50 [25] was 200 nM.
